Measurements: patent US11155550B2, “Histone deacetylase inhibitors and methods of use thereof” (Reaction Biology Corp., priority 2018, dated 2021)
Several values for one entry are separate records, joined by “and”; a condition that tells them apart may be missing. Identical values can stand only once. Like-named read-outs stand apart in the source and are kept apart here.

Test: Mouse plasma PK after IV administration
Format: in vivo
Details: for AUC(0-inf): read-out: AUCINF_obs (converted); for MRT inf: read-out: MRTINF_obs
Protocol: In vivo PK (pharmacokinetics) studies were run at Scripps Florida DMPK Core facility. Mouse plasma PK data was obtained using Compound Example 4 (N-(2-amino-5-(thiophen-2-yl)phenyl)-6-(8-methyl-2-oxo-1-oxa-3,8-diazaspiro[4.5]decan-3-yl)nicotinamide)
Dose: 1 mg/kg intravenous (IV) and 7 mg/kg oral dosage (PO)
Formulation: 0.1 mg/mL IV and 1 mg/mL PO solution in 10/10/80 DMSO/Tween80/Water
Mice Info: Male C57 Bl/6J

[1] = 1 mg/kg IV, individual mice, 1 mg/kg
[2] = male, C57 Bl/6J, mouse, plasma, iv, 1 mg/kg, 1 mg/kg IV, Average
[3] = male, C57 Bl/6J, mouse, plasma, iv, 1 mg/kg, 1 mg/kg IV, individual mice

AUC (% Extrap) (1 mg/kg IV, Average): 1.08%
Cl_obs (1 mg/kg IV, Average): 4.93 mL/min/kg
Vss_obs (1 mg/kg IV, Average): 0.54 L/kg
T1/2 (1 mg/kg IV, individual mice (Mouse-1 to Mouse-3), 1 mg/kg): 1.33 h and 1.28 h
AUC (% Extrap) [1]: 0.30% and 1.04% and 1.89%
AUC last [1]: 6.33 µM·h and 7.92 µM·h
AUCINF_obs [1]: 177722 ng·min/mL and 224191 ng·min/mL
AUClast [1]: 175879 ng·min/mL and 219951 ng·min/mL
Cmax [1]: 2490 ng/mL and 2040 ng/mL
MRTINF_obs [1]: 1.74 h and 1.97 h
Vss_obs [1]: 0.50 L/kg and 0.59 L/kg and 0.53 L/kg
Cmax (1 mg/kg IV, individual mice, 1 mg/kg, read-out: Cmax): 5.38 µM and 4.41 µM
clearance (in words) (IV administration): low clearance
volume (in words) (IV administration): low volume
Tmax (male, C57 Bl/6J, 1 mg/kg IV, individual mice): 4.8 min
AUC (male, C57 Bl/6J, 1 mg/kg, IV administration): ~7.3 µM·h
AUC(0-t) [2]: 3380 ng·h/mL and 7.3 µM·h
AUC(0-inf) [2]: 3420 ng·h/mL
Cmax (male, C57 Bl/6J, mouse, plasma, iv, 1 mg/kg, 1 mg/kg IV, Average, read-out: Cmax): 2030 ng/mL and 4.38 µM
MRT inf [2]: 1.82 h
half-life (male, C57 Bl/6J, mouse, plasma, iv, 1 mg/kg, 1 mg/kg IV, Average, read-out: T1/2 (converted)): 1.16 h
AUC(0-t) [3]: 3540 ng·h/mL and 7.64 µM·h
half-life (male, C57 Bl/6J, mouse, plasma, iv, 1 mg/kg, 1 mg/kg IV, individual mice (Mouse-1 to Mouse-3), read-out: T1/2 (converted)): 0.86 h
AUC(0-inf) [3]: 3550 ng·h/mL
Cmax (male, C57 Bl/6J, mouse, plasma, iv, 1 mg/kg, 1 mg/kg IV, individual mice, read-out: Cmax): 1560 ng/mL and 3.37 µM
MRT inf [3]: 1.76 h
half-life (male, C57 Bl/6J, mouse, plasma, iv, 1 mg/kg, IV administration, read-out: half-life (T1/2) (converted)): 1.2 h
SMILES: CN1CCC2(CC1)CN(c1ccc(C(=O)Nc3cc(-c4cccs4)ccc3N)cn1)C(=O)O2 [Example 4, N-(2-amino-5-(thiophen-2-yl)phenyl)-6-(8-methyl-2-oxo-1-oxa-3,8-diazaspiro[4.5]decan-3-yl)nicotinamide]
Cl_obs [1]: 4.70 mL/min/kg and 5.63 mL/min/kg and 4.46 mL/min/kg
